The source made the active and inactive calls. Bounds are passed on as bounds.

Our source for the IC50, EC50 and AC50 values is ChEMBL document CHEMBL1201862, “PubChem BioAssay data set” (2004).

Some targets named below: Cytochrome P450 2C9 (Homo sapiens, UniProt P11712); Cytochrome P450 2D6 (Homo sapiens, UniProt P10635); Cytochrome P450 3A4 (Homo sapiens, UniProt P08684).
Series [1] addresses T1, Corticotropin-releasing factor receptor 2/Corticotropin-releasing factor-binding protein (Homo sapiens, UniProt P24387+Q13324).
T1 sequence (Q13324 whole entry): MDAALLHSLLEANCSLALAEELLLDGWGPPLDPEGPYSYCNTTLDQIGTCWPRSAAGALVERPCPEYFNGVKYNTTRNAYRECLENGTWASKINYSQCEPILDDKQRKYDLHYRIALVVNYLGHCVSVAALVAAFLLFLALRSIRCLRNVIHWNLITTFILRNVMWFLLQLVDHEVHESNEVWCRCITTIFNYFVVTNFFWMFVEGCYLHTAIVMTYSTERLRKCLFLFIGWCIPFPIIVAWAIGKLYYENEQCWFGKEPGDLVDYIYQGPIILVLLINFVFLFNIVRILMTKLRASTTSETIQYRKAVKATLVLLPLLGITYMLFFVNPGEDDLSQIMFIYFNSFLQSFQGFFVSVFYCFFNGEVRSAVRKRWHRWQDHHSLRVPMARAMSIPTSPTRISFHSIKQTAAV
T1 sequence (P24387 whole entry): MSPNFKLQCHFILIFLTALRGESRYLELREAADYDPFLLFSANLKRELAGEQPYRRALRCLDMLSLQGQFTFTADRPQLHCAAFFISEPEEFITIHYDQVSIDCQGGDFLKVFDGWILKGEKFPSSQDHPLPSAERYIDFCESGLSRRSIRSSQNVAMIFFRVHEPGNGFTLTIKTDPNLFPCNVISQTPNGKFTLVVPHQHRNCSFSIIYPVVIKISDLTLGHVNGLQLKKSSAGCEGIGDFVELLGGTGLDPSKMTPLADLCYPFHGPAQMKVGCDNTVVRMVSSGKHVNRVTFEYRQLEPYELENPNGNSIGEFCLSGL
The series can be described thus: Dose Response confirmation of uHTS hits for small molecule antagonists of the CRF-binding protein and CRF-R2 receptor complex. The class given is functional. The settings on record: read-out: IC50_Mean.

Series [2] concerns the target T1, Corticotropin-releasing factor receptor 2/Corticotropin-releasing factor-binding protein. The series can be described thus: activators of CRF receptor 2 with binding protein – uHTS hits, confirmation (AID 602473). Format: functional. Particulars: read-out: EC50_Mean.
A further series has as its target Cytochrome P450 2C19 (Homo sapiens, UniProt P33261). The series can be described thus: Cytochrome panel assay with activity outcomes. Panel member name: p450-cyp2c19 Compounds with AC50 equal or less than 10 uM are considered active. The class given is functional.
Series [3] has as its target FAD-linked sulfhydryl oxidase ALR (Homo sapiens, UniProt P55789). The series can be described thus: inhibitors of human ALR sulfhydryl oxidase, dose response, biochemical, H2O2 detection, luminescence, cherry-pick (AID 493248).
The test system of a further series is INS1. The series can be described thus: beta cell apoptosis inhibitors, cytokine rescue, dose response, luminescence, retest (AID 449756).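 Also: cell death triggered by IL-1 beta plus TNF-alpha plus IFN-gamma mixture; protective hits raise ATP signal compared with cytokine alone wells.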 Format: functional, cell-based. Particulars: Rattus norvegicus.
In another series the target is T2, Cytochrome P450 1A2 (Homo sapiens, UniProt P05177).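 Also: PubChem cytochrome P450 panel assay, CYP1A2 panel member.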
T2 sequence (P05177 whole entry): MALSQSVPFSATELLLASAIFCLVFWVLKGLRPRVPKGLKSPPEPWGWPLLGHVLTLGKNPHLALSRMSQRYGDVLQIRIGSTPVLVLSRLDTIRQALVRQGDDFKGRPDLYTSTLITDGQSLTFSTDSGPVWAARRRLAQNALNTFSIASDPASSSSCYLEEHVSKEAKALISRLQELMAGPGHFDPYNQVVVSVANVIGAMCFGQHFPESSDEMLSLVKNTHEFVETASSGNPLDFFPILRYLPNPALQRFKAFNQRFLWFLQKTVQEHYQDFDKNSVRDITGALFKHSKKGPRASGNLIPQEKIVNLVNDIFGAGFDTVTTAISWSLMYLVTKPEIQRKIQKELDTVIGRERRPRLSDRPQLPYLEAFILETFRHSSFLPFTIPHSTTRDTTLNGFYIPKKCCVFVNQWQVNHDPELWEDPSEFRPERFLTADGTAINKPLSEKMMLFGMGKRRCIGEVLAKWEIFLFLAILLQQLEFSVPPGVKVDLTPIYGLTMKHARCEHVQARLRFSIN

Sequence of Cytochrome P450 2C9 (P11712 whole entry): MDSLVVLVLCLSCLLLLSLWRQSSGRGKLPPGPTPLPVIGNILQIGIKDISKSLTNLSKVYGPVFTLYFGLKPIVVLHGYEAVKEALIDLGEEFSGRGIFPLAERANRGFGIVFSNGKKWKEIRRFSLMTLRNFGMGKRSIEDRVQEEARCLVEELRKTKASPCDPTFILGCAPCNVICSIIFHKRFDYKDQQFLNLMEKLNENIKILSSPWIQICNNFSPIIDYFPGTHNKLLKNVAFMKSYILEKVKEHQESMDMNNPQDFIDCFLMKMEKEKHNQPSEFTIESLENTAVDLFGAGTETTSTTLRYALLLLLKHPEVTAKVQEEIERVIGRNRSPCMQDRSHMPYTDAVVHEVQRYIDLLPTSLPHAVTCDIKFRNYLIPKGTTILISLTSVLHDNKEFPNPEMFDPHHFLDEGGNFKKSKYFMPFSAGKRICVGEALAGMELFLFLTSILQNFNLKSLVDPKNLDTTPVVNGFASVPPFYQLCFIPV
Sequence of Cytochrome P450 2D6 (P10635 whole entry): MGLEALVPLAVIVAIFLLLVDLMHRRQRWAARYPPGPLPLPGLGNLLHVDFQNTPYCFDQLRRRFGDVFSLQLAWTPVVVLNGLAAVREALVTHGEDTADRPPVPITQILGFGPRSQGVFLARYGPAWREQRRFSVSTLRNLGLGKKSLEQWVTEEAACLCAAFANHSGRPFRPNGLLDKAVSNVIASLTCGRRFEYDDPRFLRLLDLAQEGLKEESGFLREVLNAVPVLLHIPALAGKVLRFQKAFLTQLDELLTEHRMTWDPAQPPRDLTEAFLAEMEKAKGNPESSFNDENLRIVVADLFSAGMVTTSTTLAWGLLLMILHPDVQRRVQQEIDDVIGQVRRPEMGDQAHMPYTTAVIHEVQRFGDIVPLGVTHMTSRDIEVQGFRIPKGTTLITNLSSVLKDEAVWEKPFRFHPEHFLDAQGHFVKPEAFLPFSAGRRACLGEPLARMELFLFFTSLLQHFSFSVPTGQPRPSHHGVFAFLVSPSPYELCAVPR
Sequence of FAD-linked sulfhydryl oxidase ALR (P55789 whole entry): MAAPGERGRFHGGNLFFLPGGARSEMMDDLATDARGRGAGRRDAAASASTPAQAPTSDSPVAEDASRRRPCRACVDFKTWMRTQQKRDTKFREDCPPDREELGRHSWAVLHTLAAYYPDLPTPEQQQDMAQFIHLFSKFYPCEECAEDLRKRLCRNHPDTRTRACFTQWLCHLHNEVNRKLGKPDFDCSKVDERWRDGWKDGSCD
Sequence of Cytochrome P450 3A4 (P08684 whole entry): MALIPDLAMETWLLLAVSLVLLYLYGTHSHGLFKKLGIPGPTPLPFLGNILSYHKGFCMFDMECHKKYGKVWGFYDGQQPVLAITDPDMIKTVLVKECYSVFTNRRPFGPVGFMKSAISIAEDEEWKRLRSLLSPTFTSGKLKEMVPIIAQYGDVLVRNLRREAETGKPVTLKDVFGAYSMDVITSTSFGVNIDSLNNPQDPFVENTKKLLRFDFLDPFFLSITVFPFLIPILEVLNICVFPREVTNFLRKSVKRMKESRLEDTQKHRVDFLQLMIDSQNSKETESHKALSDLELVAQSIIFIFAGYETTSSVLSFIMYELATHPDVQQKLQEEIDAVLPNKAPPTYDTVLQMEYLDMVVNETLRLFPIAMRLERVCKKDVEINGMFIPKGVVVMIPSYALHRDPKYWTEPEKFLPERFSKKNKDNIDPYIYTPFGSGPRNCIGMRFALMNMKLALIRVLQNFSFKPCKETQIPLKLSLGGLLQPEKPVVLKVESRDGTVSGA
Sequence of Cytochrome P450 2C19 (P33261 whole entry): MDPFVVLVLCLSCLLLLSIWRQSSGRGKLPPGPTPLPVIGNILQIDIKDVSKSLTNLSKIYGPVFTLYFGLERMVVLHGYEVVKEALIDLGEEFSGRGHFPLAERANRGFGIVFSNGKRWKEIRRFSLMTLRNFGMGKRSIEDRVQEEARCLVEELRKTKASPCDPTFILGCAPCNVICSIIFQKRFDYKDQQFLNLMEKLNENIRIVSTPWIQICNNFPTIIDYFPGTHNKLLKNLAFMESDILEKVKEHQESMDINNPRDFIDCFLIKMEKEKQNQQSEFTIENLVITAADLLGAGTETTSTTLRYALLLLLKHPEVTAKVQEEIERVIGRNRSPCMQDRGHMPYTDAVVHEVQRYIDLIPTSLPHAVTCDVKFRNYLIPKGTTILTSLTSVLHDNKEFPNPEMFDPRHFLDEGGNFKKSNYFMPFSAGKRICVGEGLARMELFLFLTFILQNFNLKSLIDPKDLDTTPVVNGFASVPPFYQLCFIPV

For the compound `Cc1ccc(C)c(NC(=O)Cn2cnc3c(oc4ccccc43)c2=O)c1`, the IC50 in series [1] is > 47.1 µM (inactive). Further, the EC50 in series [2] was > 53 µM (inactive).
Take `COc1ccccc1-n1cnnc1SCC(=O)NCc1cccs1`: in [1], the IC50 was > 47.1 µM (inactive). In addition, in series [2], the EC50 was > 53 µM (inactive).
`CC1=CN2C(=NC(=O)CC2(C)C(=O)N(CC(=O)NC2CCCC2)c2ccccc2C)C=C1` (configuration not stated): the IC50 in series [1] is > 47.1 µM (inactive). The EC50 in [2] was > 53 µM (inactive).
Regarding `CC(C)(C)NC(=O)C(=O)NNC(=O)c1ccccc1`, the half-maximal activity concentration (AC50) (commonly the concentration giving half of the maximal activity seen) at Cytochrome P450 2C19 is “inconclusive”; on Cytochrome P450 2C9, 1.78 µM (inconclusive).
Consider `CNc1ccc(C2(O)C(=O)c3ccccc3C2=O)cc1`, for which the AC50 in series [3] is 0.664 µM (active).
In the case of `O=C(Cc1ccccc1)NNc1c2ccccc2nc2ccccc12`, in [3], the AC50 was 2.43 µM (active).
`FC(F)(F)c1ccccc1N=C(S)N1CCc2ccccc2C1`: the AC50 in the series on INS1 was 8.78 µM (active).
On to `O=C(NCc1ccncc1)c1cc(-c2ccc(Cl)cc2)oc1C(F)(F)F`, for which the AC50 with INS1 was 18.6 µM (active).
For `Cc1ccc(-n2nnnc2SCC(=O)Nc2cccnc2Cl)cc1`, in [1], the IC50 was > 47.1 µM (inactive). In addition, the EC50 in [2] is > 53 µM (inactive).
As to `N#Cc1cccc(-c2ccc3ncnc(NCc4cccs4)c3c2)c1`, the AC50 on Cytochrome P450 2D6 was 12.6 µM (inconclusive); at Cytochrome P450 2C9, 0.501 µM (inconclusive).
In the case of `CCN(CC)C(=O)c1csc(Nc2ccc(C)cc2)n1`, the AC50 in series [3] is 5.19 µM (active).
As to `Cc1cc(C)cc(Oc2cc(NC(=O)c3cn(C)nc3C)cc([N+](=O)[O-])c2)c1`, in the series on INS1, the half-maximal activity concentration (AC50) is 13.5 µM (active).
The same measure, in the same setting: the value for `C/C(=N\Nc1nc(C)cc(-c2ccccc2)n1)c1ccccc1` was 2.37 µM (active).
`CCC1=C(C[C@H]2NCCc3cc(OC)c(OC)cc32)C[C@H]2c3ccccc3CCN2C1`: the half-maximal activity concentration (AC50) at Cytochrome P450 3A4 and at Cytochrome P450 2C9 was 3.16 µM (inconclusive) throughout.
For `CCN(CC)CCCNC(=O)C1CCC(=O)N(c2ccc(OC)cc2)C1c1ccc(F)cc1` (configuration not stated), the AC50 result was “inconclusive” on Cytochrome P450 2C19 and 39.8 µM (inconclusive) on Cytochrome P450 2C9.
As to `CCCCC(NC(=O)CCc1c(C)c2cc3c4c(oc3c(C)c2oc1=O)CCCC4)C(=O)O` (configuration not stated), in series [3], the AC50 was 7.78 µM (active).
Take `COc1ccc(Cc2nnc(NC(=O)c3ccc(Cl)c([N+](=O)[O-])c3)s2)cc1`: the AC50 at Cytochrome P450 3A4 is 0.631 µM (inconclusive); at Cytochrome P450 2C9, 1.41 µM (inconclusive).
For the compound `C[N+](C)(C)CCC(=O)c1cccc2ccccc12`, the concentration at half-maximal activity (AC50) at Cytochrome P450 2D6 was 10 µM (inconclusive); on Cytochrome P450 3A4, 0.2 µM (inconclusive); on Cytochrome P450 2C9 it was 12.6 µM (inconclusive).
On to `CC(Sc1nnnn1-c1ccccc1)C(=O)Nc1ccccc1-c1ccccc1` (configuration not stated), for which the IC50 in series [1] was > 47.1 µM (inactive). In series [2], the EC50 was > 53 µM (inactive).
As to `CC(NC(=O)CCCCCNC(=O)N1CCn2c1nc1ccccc12)c1ccccc1` (configuration not stated), the half-maximal activity concentration (AC50) in series [3] is 4.51 µM (active).
On the same count and under the same terms, the value for `CNS(=O)(=O)c1cnccc1N1CCN(c2cccc(C)c2)CC1` was < 0.005 µM (active).
On to `CC(C)c1ccc(CNc2cc(N3CCCC3)ccc2[N+](=O)[O-])cc1`, for which the AC50 on Cytochrome P450 2C9 is 2.24 µM (inconclusive).
For the compound `O=C(N/N=C/c1ccccc1Cl)C1CC1`, in [1], the IC50 was > 47.1 µM (inactive). For the same compound, the EC50 in [2] was > 53 µM (inactive).
`COc1cc(NC(=O)c2ccccc2Cl)ccc1NC(=O)c1ccco1`: the AC50 on Cytochrome P450 2D6 was 22.4 µM (inconclusive); on Cytochrome P450 1A2, 17.8 µM (inconclusive); at Cytochrome P450 2C9, 1.12 µM (inconclusive).
`CCCCOc1ccc(C(=O)N/C(=C\c2cccc([N+](=O)[O-])c2)C(=O)OCCC)cc1`: at Cytochrome P450 2C9, the AC50 was 0.708 µM (inconclusive).
`CC(C)C(=O)Nc1ccc(C(=O)NNC(=O)C(c2ccccc2)c2ccccc2)cc1`: the AC50 at Cytochrome P450 3A4 was 4.47 µM (inconclusive); at Cytochrome P450 2C9 it was 5.01 µM (inconclusive).
Regarding `Cc1ccccc1N=Nc1c(N)n[nH]c1N`, the concentration at half-maximal activity (AC50) in [3] was 5.72 µM (active).
Turning to `CCSc1ccc(NC(=O)c2cccnc2)cc1`, the AC50 with INS1 is 7.23 µM (active).
Take `Cc1cccc(-n2c(-c3ccoc3C)n[nH]c2=S)c1`: the AC50 in [3] is 7.34 µM (active).
`CCC1C(=O)N=C(SCC(=O)Nc2ccc(C(=O)OC)cc2)NC1=O` (configuration not stated): at Cytochrome P450 2C9, the AC50 was 31.6 µM (inconclusive).
For `COc1ccc(NC2CCCN(C(=O)c3cccc(C)n3)C2)cc1OC` (configuration not stated), the IC50 in series [1] was > 47.1 µM (inactive). Besides, in [2], the EC50 was > 53 µM (inactive).
For `CCOc1cc(CNc2ccc(OC)cc2)cc(Br)c1OCC(=O)NC(C)(C)C`, at Cytochrome P450 2C9, the AC50 is 7.08 µM (inconclusive).
Take `Cc1ccc(Nc2nc(CSc3n[nH]c(N)n3)cs2)cc1`: the AC50 in series [3] was < 0.005 µM (active).
With `CCOC(=O)c1sc(NC(=O)CSc2n[nH]c(-c3ccncc3)n2)c(C#N)c1C`, the IC50 in series [1] was 16.3 µM (active). The EC50 in series [2] is 8.57 µM (active).
Regarding `Oc1[nH]ncc1/C=N/c1ccc(Cl)cc1`, in [1], the IC50 was > 47.1 µM (inactive). The EC50 in series [2] is > 53 µM (inactive).
As for `CN1c2ccc([N+](=O)[O-])cc2C(C)(C)C12C=Cc1cc(C(=O)O)ccc1O2` (configuration not stated), the AC50 in series [3] is 1.47 µM (active).
Take `CSc1nc2n(n1)C(c1cccc(F)c1)C(C(=O)Nc1ccc(C)cc1C)=C(C)N2` (configuration not stated): the AC50 was 0.708 µM (inconclusive) at Cytochrome P450 3A4 and 3.98 µM (inconclusive) on Cytochrome P450 2C9.
Regarding `N#Cc1ccc(CN2CC[C@@]3(CCCN(C(=O)c4ccncc4)C3)C2)cc1`, the AC50 was 20 µM (inconclusive) at Cytochrome P450 2D6, 39.8 µM (inconclusive) on Cytochrome P450 1A2 and 31.6 µM (inconclusive) on Cytochrome P450 2C9.
For the compound `CCOC(=O)c1ccc(NC(=O)c2cccnc2)cc1`, the AC50 with INS1 was 3.75 µM (active).
`COC(=O)c1cnn(C(=O)c2ccccc2Br)c1N`: the AC50 at Cytochrome P450 2C9 is 22.4 µM (inconclusive).
In the case of `CN(C)c1ccc(/C=N/NC(=O)c2ccc3c(c2)OCO3)cc1`, the AC50 in series [3] is 4.72 µM (active).
`CC(C)CN1CCN(Cc2cccc3nccnc23)CC1CCO` (configuration not stated): in series [1], the IC50 is > 47.1 µM (inactive). Moreover, in [2], the EC50 is > 53 µM (inactive).
As for `Cc1cccc(OCc2nnc(S)n2-c2ccccc2)c1`, the AC50 in series [3] is 1.6 µM (active).
`Cc1ccc(N(Cc2ccc([N+](=O)[O-])cc2)C(=O)c2ccco2)cc1`: the IC50 in series [1] was > 47.1 µM (inactive). In addition, in series [2], the EC50 was > 53 µM (inactive). Also, the half-maximal activity concentration (AC50) on Cytochrome P450 2D6 was 0.562 µM (inconclusive); on Cytochrome P450 3A4 it was 28.2 µM (inconclusive).
For `COc1ccc(CC(=O)N/N=C(\C)CC(=O)Nc2ccc(N(C)C)cc2)cc1`, the AC50 in [3] is 2.04 µM (active).
In the case of `Cc1ccc(CNC(=O)c2cc(-c3ccccc3C)n(CC3CC(c4cccc([N+](=O)[O-])c4)=NO3)n2)cc1` (configuration not stated), in series [1], the IC50 is > 47.1 µM (inactive). In addition, in series [2], the EC50 was > 53 µM (inactive).
As to `COc1ccccc1CNC(=O)C1CC(=O)N(C2CCCC2)C1` (configuration not stated), the AC50 is 28.2 µM (inconclusive) on Cytochrome P450 2C19 (read-out: AC50), 22.4 µM (inconclusive) on Cytochrome P450 3A4 and 0.0224 µM (inconclusive) on Cytochrome P450 2C9.
As for `Sc1nnc(-c2ccccc2)c(-c2ccccc2)n1`, in series [3], the AC50 is 0.567 µM (active).
